Experimental data taken from patent US9663460B2, “Sulfur derivatives as chemokine receptor modulators” (ALLERGAN, INC., priority 2010, dated 2017).

Molecular target: CCR2 (Homo sapiens (Human), UniProt P41597)
Assay: Calcium activity assayed on the FLIPR Tetra in HEK-Gqi5 cells stably expressing CCR2
Format: cell-based
Conditions: FLIPR Tetra calcium assay

Sequence of CCR2 (P41597 whole entry, species assumed): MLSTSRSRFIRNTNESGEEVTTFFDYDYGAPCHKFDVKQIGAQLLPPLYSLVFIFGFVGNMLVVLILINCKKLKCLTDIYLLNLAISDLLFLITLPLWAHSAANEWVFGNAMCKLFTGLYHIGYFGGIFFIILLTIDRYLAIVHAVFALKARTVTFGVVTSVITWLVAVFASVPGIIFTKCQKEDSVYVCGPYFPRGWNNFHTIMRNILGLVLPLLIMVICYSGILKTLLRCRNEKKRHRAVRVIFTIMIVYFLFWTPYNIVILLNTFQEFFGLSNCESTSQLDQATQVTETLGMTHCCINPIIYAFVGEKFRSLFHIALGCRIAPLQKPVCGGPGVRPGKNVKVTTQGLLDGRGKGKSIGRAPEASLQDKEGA

CCR2 % ANTAGONISM [%] | IC50 [nM] | SMILES
97 | 213 | CS(=O)(=O)c1ccc(Cl)cc1NS(=O)(=O)c1ccc(C(F)(F)F)c([N+](=O)[O-])c1 [N-[5-chloro-2-(methylsulfonyl)phenyl]-3-nitro-4-(trifluoromethyl)benzenesulfonamide]
92 | 1070 | CS(=O)(=O)c1ccc(Cl)cc1NS(=O)(=O)c1ccc(I)cc1 [N-[5-chloro-2-(methylsulfonyl)phenyl]-4-iodobenzenesulfonamide]
89 | 207 | Cc1ccc(S(=O)(=O)Nc2cc(Cl)ccc2S(C)(=O)=O)cc1[N+](=O)[O-] [N-[5-chloro-2-(methylsulfonyl)phenyl]-4-methyl-3-nitrobenzenesulfonamide]
87 | – | CSc1ccc(Cl)cc1NS(=O)(=O)c1ccc(F)cc1F [N-[5-chloro-2-(methylthio)phenyl]-2,4-difluorobenzenesulfonamide]
90 | 491 | CSc1ccc(Cl)cc1NS(=O)(=O)c1ccc(C(F)(F)F)c([N+](=O)[O-])c1 [N-[5-chloro-2-(methylthio)phenyl]-3-nitro-4-(trifluoromethyl)benzenesulfonamide]
92 | 680 | CSc1ccc(Cl)cc1NS(=O)(=O)c1ccc(C)c([N+](=O)[O-])c1 [N-[5-chloro-2-(methylthio)phenyl]-4-methyl-3-nitrobenzenesulfonamide]
93 | 940 | CSc1ccc(Cl)cc1NS(=O)(=O)c1ccco1 [N-[5-chloro-2-(methylthio)phenyl]furan-2-sulfonamide]
98 | 129 | Nc1ccccc1CS(=O)(=O)c1ccc(Cl)cc1NS(=O)(=O)c1cc2ccccc2o1 [N-{2-[(2-aminobenzyl)sulfonyl]-5-chlorophenyl}-1-benzofuran-2-sulfonamide]
97 | 1070 | NCCSc1ccc(Cl)cc1NS(=O)(=O)c1ccc(Cl)c(C(F)(F)F)c1 [N-{2-[(2-aminoethyl)thio]-5-chlorophenyl}-4-chloro-3-(trifluoromethyl)benzenesulfonamide]
100 | 85 | COc1ccc([S+]([O-])Cc2cccc(N)c2)c(NS(=O)(=O)c2cc3ccccc3o2)c1 (centres unmarked) [N-{2-[(3-aminobenzyl)sulfinyl]-5-methoxyphenyl}-1-benzofuran-2-sulfonamide]
96 | 248 | Nc1cccc(CS(=O)(=O)c2ccc(Cl)cc2NS(=O)(=O)c2ccc(Cl)cc2F)c1 [N-{2-[(3-aminobenzyl)sulfonyl]-5-chlorophenyl}-4-chloro-2-fluorobenzenesulfonamide]
99 | 421 | Nc1cccc(CS(=O)(=O)c2ccc(Cl)cc2NS(=O)(=O)c2ccc(Cl)cc2)c1 [N-{2-[(3-aminobenzyl)sulfonyl]-5-chlorophenyl}-4-chlorobenzenesulfonamide]
52 | 1240 | Nc1cccc(CS(=O)(=O)c2ccc(Cl)cc2NS(=O)(=O)c2ccccc2)c1 [N-{2-[(3-aminobenzyl)sulfonyl]-5-chlorophenyl}benzenesulfonamide]
90 | 22 | Nc1cccc(CS(=O)(=O)c2ccc(F)cc2NS(=O)(=O)c2cc3ccccc3o2)c1 [N-{2-[(3-aminobenzyl)sulfonyl]-5-fluorophenyl}-1-benzofuran-2-sulfonamide]
107 | 176 | COc1ccc(S(=O)(=O)Cc2cccc(N)c2)c(NS(=O)(=O)c2cc3ccccc3o2)c1 [N-{2-[(3-aminobenzyl)sulfonyl]-5-methoxyphenyl}-1-benzofuran-2-sulfonamide]
97 | 55 | Nc1cccc(CSc2ccc(F)cc2NS(=O)(=O)c2cc3ccccc3o2)c1 [N-{2-[(3-aminobenzyl)thio]-5-fluorophenyl}-1-benzofuran-2-sulfonamide]

Second part, the compound before the results:

SMILES | CCR2 % ANTAGONISM [%] | IC50 [nM]
C[S+]([O-])c1ccc(Cl)cc1NS(=O)(=O)c1cccs1 (centres unmarked) [N-[5-chloro-2-(methylsulfinyl)phenyl]thiophene-2-sulfonamide] | 53 | 1110
CS(=O)(=O)c1ccc(Cl)cc1NS(=O)(=O)c1cc2ccccc2o1 [N-[5-chloro-2-(methylsulfonyl)phenyl]-1-benzofuran-2-sulfonamide] | 93 | 42
CS(=O)(=O)c1ccc(Cl)cc1NS(=O)(=O)c1ccc(F)cc1F [N-[5-chloro-2-(methylsulfonyl)phenyl]-2,4-difluorobenzenesulfonamide] | 91 | 354
CC(C)c1ccc(S(=O)(=O)Nc2cc(Cl)ccc2S(C)(=O)=O)cc1 [N-[5-chloro-2-(methylsulfonyl)phenyl]-4-isopropylbenzenesulfonamide] | 0 | –
Cc1ccc(S(=O)(=O)Nc2cc(Cl)ccc2S(C)(=O)=O)o1 [N-[5-chloro-2-(methylsulfonyl)phenyl]-5-methylfuran-2-sulfonamide] | 90 | 990
CS(=O)(=O)c1ccc(Cl)cc1NS(=O)(=O)c1ccco1 [N-[5-chloro-2-(methylsulfonyl)phenyl]furan-2-sulfonamide] | 99 | 345
CSc1ccc(Cl)cc1NS(=O)(=O)c1cc2ccccc2o1 [N-[5-chloro-2-(methylthio)phenyl]-1-benzofuran-2-sulfonamide] | 99 | 26
CSc1ccc(Cl)cc1NS(=O)(=O)c1ccc(I)cc1 [N-[5-chloro-2-(methylthio)phenyl]-4-iodobenzenesulfonamide] | 71 | 2030
CSc1ccc(Cl)cc1NS(=O)(=O)c1ccc(C)o1 [N-[5-chloro-2-(methylthio)phenyl]-5-methylfuran-2-sulfonamide] | 77 | 70
CSc1ccc(Cl)cc1NS(=O)(=O)c1cccs1 [N-[5-chloro-2-(methylthio)phenyl]thiophene-2-sulfonamide] | 0 | –
Nc1ccccc1C[S+]([O-])c1ccc(Cl)cc1NS(=O)(=O)c1cc2ccccc2o1 (centres unmarked) [N-{2-[(2-aminobenzyl)sulfinyl]-5-chlorophenyl}-1-benzofuran-2-sulfonamide] | 93 | 115
Nc1ccccc1CSc1ccc(Cl)cc1NS(=O)(=O)c1cc2ccccc2o1 [N-{2-[(2-aminobenzyl)thio]-5-chlorophenyl}-1-benzofuran-2-sulfonamide] | 91 | 100
NCC[S+]([O-])c1ccc(Cl)cc1NS(=O)(=O)c1ccc(Cl)c(C(F)(F)F)c1 (centres unmarked) [N-{2-[(2-aminoethyl)sulfinyl]-5-chlorophenyl}-4-chloro-3-(trifluoromethyl)benzenesulfonamide] | 84 | 3530
Nc1cccc(C[S+]([O-])c2ccc(Cl)cc2NS(=O)(=O)c2ccc(F)cc2F)c1 (centres unmarked) [N-{2-[(3-aminobenzyl)sulfinyl]-5-chlorophenyl}-2,4-difluorobenzenesulfonamide] | 99 | 443
Nc1cccc(C[S+]([O-])c2ccc(Cl)cc2NS(=O)(=O)c2ccc(Cl)cc2F)c1 (centres unmarked) [N-{2-[(3-aminobenzyl)sulfinyl]-5-chlorophenyl}-4-chloro-2-fluorobenzenesulfonamide] | 95 | 113
Nc1cccc(C[S+]([O-])c2ccc(Cl)cc2NS(=O)(=O)c2ccc(Cl)cc2)c1 (centres unmarked) [N-{2-[(3-aminobenzyl)sulfinyl]-5-chlorophenyl}-4-chlorobenzenesulfonamide] | 99 | 159
Nc1cccc(C[S+]([O-])c2ccc(Cl)cc2NS(=O)(=O)c2ccccc2)c1 (centres unmarked) [N-{2-[(3-aminobenzyl)sulfinyl]-5-chlorophenyl}benzenesulfonamide] | 62 | 2560
Nc1cccc(C[S+]([O-])c2ccc(F)cc2NS(=O)(=O)c2cc3ccccc3o2)c1 (centres unmarked) [N-{2-[(3-aminobenzyl)sulfinyl]-5-fluorophenyl}-1-benzofuran-2-sulfonamide] | 91 | 38
Nc1cccc(C[S+]([O-])c2ccccc2NS(=O)(=O)c2cc3ccccc3o2)c1 (centres unmarked) [N-{2-[(3-aminobenzyl)sulfinyl]phenyl}-1-benzofuran-2-sulfonamide] | 110 | 58
Nc1cccc(CS(=O)(=O)c2ccc(Cl)cc2NS(=O)(=O)c2ccc(F)cc2F)c1 [N-{2-[(3-aminobenzyl)sulfonyl]-5-chlorophenyl}-2,4-difluorobenzenesulfonamide] | 89 | 718
Nc1cccc(CS(=O)(=O)c2ccccc2NS(=O)(=O)c2cc3ccccc3o2)c1 [N-{2-[(3-aminobenzyl)sulfonyl]phenyl}-1-benzofuran-2-sulfonamide] | 94 | 41
Nc1cccc(CSc2ccc(Cl)cc2NS(=O)(=O)c2ccc(F)cc2F)c1 [N-{2-[(3-aminobenzyl)thio]-5-chlorophenyl}-2,4-difluorobenzenesulfonamide] | 64 | 3240
Nc1cccc(CSc2ccc(Cl)cc2NS(=O)(=O)c2cccc(Cl)c2)c1 [N-{2-[(3-aminobenzyl)thio]-5-chlorophenyl}-3-chlorobenzenesulfonamide] | 95 | 1460
Nc1cccc(CSc2ccc(Cl)cc2NS(=O)(=O)c2ccc(Cl)cc2F)c1 [N-{2-[(3-aminobenzyl)thio]-5-chlorophenyl}-4-chloro-2-fluorobenzenesulfonamide] | 88 | 2820
Nc1cccc(CSc2ccc(Cl)cc2NS(=O)(=O)c2ccc(Cl)cc2)c1 [N-{2-[(3-aminobenzyl)thio]-5-chlorophenyl}-4-chlorobenzenesulfonamide] | 95 | 3890
Nc1cccc(CSc2ccc(Cl)cc2NS(=O)(=O)c2ccccc2)c1 [N-{2-[(3-aminobenzyl)thio]-5-chlorophenyl}benzenesulfonamide] | 40 | 3100
COc1ccc(SCc2cccc(N)c2)c(NS(=O)(=O)c2cc3ccccc3o2)c1 [N-{2-[(3-aminobenzyl)thio]-5-methoxyphenyl}-1-benzofuran-2-sulfonamide] | 100 | 1400
